The text below walks through data of paper PMC9101869, “5,2′-Dibromo-2,4′,5′-trihydroxydiphenylmethanone Inhibits LPS-Induced Vascular Inflammation by Targeting the Cav1 Protein” (Molecules, 2022).

This assay addresses T1, Cav1 (Homo sapiens, UniProt Q03135).
T1 construct: commercial human recombinant Cav1 (Cloud-Clone Corp.); biotinylated for BLI
T1 sequence (Q03135 2-178): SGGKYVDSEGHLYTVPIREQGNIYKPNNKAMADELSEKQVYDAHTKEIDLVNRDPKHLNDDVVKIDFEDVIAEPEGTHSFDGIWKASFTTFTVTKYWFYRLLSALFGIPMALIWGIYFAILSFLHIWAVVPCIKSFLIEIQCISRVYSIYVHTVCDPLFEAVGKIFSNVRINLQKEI
The experiment in a line: intrinsic fluorescence quenching, double logarithmic fit. The class given is binding. The settings on record: 298 K; Cav1 5.0 × 10^−9 mol/L; excitation 280 nm; n fitted as free exponent; read-out: Kb(L.mol^-1) (converted). The text has this: intrinsic fluorescence quenching, double logarithmic fit on Cav1

As to `O=C(c1cc(Br)ccc1O)c1cc(O)c(O)cc1Br` [TDD, 5,2′-dibromo-2,4′,5′-trihydroxydiphenylmethanone], the Kd was 0.917 nM.
